Experimental data published in patent publication US6926763B2, “Purine and isosteric antibacterial compounds” (GLSynthesis, Inc., priority 2002, dated 2005).
In brackets after ≈: the same amount, converted by molar mass. Where two headings read alike, the source gives them in different places. Blank lines part the entries; values can stand above or below the compound they belong to.

Experiments:
[1] = target: B.s. pol IIIC (Bacillus subtilis, UniProt P13267); assay: biochemical; type: biochemical
B.s. pol IIIC, sequence (P13267 whole entry): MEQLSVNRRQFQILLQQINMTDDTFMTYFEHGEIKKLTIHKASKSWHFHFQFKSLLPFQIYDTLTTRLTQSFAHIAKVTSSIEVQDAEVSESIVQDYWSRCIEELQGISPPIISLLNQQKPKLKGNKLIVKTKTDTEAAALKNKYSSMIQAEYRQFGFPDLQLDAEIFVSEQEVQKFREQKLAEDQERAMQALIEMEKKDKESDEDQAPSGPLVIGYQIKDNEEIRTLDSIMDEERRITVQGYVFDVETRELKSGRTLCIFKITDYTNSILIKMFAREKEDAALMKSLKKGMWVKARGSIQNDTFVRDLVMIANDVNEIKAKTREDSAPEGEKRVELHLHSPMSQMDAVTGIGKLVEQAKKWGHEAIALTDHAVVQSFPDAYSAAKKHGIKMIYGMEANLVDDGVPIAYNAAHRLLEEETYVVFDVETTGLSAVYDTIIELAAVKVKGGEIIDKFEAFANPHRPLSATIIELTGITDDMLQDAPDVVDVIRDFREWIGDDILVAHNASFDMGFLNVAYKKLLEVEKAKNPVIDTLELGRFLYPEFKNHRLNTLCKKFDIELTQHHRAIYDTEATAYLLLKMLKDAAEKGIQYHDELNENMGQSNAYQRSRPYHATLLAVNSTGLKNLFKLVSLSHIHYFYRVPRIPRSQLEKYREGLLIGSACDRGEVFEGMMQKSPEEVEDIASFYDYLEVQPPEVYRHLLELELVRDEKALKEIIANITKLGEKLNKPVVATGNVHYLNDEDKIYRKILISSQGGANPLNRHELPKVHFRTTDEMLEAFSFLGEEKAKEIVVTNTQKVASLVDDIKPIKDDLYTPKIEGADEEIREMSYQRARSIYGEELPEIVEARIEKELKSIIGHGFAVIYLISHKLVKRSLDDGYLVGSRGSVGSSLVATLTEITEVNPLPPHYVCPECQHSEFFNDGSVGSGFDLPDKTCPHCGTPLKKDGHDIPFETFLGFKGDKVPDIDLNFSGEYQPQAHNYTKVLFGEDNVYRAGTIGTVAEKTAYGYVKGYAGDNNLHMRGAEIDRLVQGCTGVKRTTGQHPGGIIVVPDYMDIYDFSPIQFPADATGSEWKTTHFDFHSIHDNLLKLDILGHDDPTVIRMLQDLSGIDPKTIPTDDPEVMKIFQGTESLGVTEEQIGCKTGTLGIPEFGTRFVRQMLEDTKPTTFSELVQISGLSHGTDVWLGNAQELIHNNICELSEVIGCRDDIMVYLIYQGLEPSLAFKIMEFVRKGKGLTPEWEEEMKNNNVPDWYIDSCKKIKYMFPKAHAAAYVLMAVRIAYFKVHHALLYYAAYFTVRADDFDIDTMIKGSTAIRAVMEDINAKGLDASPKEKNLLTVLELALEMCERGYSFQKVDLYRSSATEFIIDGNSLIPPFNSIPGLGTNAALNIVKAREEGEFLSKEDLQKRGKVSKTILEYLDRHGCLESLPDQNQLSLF
Description: (§1) The ability of a test compound to inhibit the activity of DNA pol IIIC or pol IIIE enzymes can be tested by using a DNA polymerase assay as described, for example, in Barnes and Brown, Nucl. […] This rapid screening method can use natural or recombinant DNA pol III enzymes in a standard DNA polymerase activity assay. By including a test compound in a side-by-side assay with a control, the effect of the test compound on polymerase activity can be assessed.
(§2) DNA pol III activity was assayed as described in Barnes et al., Nucl.
(§3) Purified pol IIIC or pol IIIE was added to a buffered solution containing Mg^2+, DTT, glycerol, nicked calf thymus DNA, saturating concentrations of dATP, dCTP, dTTP and [^3H]-dTTP. Reaction mixtures were incubated at 30° C. for 10 min, quenched and filtered, and radioactivity in the acid-insoluble material measured by scintillation counting. Experiments were done in triplicate. Inhibitors were assayed by addition of several dilutions of a stock solution of inhibitor (DMSO or water, depending on solubility) before enzyme addition. […] The truncated assay, i.e., exclusion of the competitive substrate dGTP allows for the direct determination of apparent inhibitor constants (Ki) in this assay system.

[2] = target: B.s. pol IIIE (Bacillus subtilis, UniProt O34623); assay: biochemical; type: biochemical
B.s. pol IIIE, sequence (O34623 whole entry): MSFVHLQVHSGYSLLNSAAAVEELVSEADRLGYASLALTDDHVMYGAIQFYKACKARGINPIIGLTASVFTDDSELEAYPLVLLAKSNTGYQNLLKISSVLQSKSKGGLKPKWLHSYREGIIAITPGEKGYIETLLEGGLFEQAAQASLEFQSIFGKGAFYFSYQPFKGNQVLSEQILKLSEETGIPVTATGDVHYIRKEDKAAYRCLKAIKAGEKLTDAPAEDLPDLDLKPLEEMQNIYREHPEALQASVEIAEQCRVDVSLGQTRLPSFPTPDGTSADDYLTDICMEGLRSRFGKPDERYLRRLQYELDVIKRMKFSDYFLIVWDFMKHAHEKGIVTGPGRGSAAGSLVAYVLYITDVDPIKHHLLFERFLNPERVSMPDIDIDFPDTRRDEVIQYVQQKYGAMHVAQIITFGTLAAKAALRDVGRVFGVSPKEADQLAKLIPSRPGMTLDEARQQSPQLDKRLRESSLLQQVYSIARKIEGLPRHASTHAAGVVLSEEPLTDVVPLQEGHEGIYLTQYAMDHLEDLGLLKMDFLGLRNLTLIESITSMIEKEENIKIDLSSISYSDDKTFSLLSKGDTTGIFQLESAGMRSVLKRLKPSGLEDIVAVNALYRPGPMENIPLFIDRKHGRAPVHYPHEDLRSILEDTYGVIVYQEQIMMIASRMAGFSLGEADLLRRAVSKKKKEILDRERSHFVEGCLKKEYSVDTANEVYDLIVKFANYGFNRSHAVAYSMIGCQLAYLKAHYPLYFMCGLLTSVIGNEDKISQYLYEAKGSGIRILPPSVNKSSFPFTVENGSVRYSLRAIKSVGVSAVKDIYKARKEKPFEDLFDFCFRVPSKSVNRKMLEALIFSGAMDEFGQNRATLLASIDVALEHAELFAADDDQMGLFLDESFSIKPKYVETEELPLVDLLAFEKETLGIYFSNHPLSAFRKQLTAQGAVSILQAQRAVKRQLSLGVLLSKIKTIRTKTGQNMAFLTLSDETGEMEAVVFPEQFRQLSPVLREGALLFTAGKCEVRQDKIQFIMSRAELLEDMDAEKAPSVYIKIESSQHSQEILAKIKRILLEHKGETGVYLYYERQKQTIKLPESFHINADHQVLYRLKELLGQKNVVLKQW
Description: as §1, §2, §3

[3] = target: E.c. pol IIIE (Escherichia coli, UniProt P10443); assay: biochemical
E.c. pol IIIE, sequence (P10443 whole entry): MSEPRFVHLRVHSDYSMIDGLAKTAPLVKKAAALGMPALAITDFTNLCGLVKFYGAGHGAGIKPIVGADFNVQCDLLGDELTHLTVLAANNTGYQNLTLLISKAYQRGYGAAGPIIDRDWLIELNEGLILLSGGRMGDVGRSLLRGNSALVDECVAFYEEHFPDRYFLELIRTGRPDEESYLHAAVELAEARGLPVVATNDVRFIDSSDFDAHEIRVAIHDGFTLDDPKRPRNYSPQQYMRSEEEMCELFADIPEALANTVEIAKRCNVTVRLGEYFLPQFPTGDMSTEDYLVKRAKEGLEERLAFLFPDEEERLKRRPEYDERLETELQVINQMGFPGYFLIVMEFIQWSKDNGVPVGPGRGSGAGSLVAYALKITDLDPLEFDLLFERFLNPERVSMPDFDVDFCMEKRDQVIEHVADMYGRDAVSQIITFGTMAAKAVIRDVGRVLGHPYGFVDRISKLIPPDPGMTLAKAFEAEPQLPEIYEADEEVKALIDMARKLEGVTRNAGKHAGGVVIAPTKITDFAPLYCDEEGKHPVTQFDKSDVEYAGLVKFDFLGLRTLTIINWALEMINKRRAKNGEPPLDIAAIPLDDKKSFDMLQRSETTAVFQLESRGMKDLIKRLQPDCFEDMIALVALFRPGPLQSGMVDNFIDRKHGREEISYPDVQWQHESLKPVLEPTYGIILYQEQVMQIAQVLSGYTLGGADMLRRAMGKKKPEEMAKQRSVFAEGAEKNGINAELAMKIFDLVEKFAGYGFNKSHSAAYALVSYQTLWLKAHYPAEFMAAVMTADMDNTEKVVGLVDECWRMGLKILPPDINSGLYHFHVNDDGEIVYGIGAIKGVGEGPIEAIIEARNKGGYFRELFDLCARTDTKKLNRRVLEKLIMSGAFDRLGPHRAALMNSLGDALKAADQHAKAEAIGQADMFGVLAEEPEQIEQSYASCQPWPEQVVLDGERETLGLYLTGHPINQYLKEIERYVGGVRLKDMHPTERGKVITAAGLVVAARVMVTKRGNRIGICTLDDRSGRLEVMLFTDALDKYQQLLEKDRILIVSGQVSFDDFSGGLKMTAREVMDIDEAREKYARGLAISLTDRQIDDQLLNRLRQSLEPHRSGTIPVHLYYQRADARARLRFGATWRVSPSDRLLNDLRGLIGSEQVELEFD
Description: as §1, §2, §3

[4] = tested on: vancomycin-resistant E. fecium; assay: Inhibition of bacterial growth (agar plate MIC), VRE; type: cell-based, Enterococcus fecium; conditions: agar plates, 37° C., 24 hours
Description: (§4) Antimicrobial efficacy may be determined by standard methods of microbial culture in growth medium or on plates of agar supplemented with appropriate growth media. For example, microbes, e.g., mycoplasmata or Gram-positive or Gram-negative bacteria, are grown in the presence of serial dilutions of compounds in an appropriate vehicle, and, after a suitable period of growth, the microbial density is measured by visual or instrumental means. The concentration of compound at which no growth occurs is the minimum inhibitory concentration (MIC) of the compound. Test compounds with an appropriate level of growth inhibition are good candidate therapeutics for further evaluation.
(§5) Each compound was assayed against a panel of Gram-positive Bacilli, Enterococci, and Staphylococci, and Gram-negative Escherichia coli, grown in appropriate plate media solidified with 1.3% agar-agar. […] One tenth mL of diluted bacteria containing 500-1000 colony-forming units (CFU) were plated and spread, and the plates were incubated at 37° C. for 24 hours. MIC (minimum inhibitory concentration) was equivalent to the lowest concentration at which growth, i.e. colony formation, was not observed.

[5] = tested on: Bacillus subtilis; assay: Inhibition of bacterial growth (agar plate MIC), B.s.; type: cell-based; conditions: agar plates, 37° C., 24 hours; for MIC: Bacillus subtilis
Description: as §4, §5

[6] = tested on: Staphylococcus aureus; assay: Inhibition of bacterial growth (agar plate MIC), S.a.; type: cell-based; conditions: agar plates, 37° C., 24 hours
Description: as §4, §5

[7] = tested on: S.a. (Smith); assay: Inhibition of bacterial growth (agar plate MIC), S.a. (Smith); type: cell-based, Staphylococcus aureus; conditions: agar plates, 37° C., 24 hours; for MIC: Staphylococcus aureus
Description: as §4, §5

[8] = tested on: Enterococcus fecalis; assay: Inhibition of bacterial growth (agar plate MIC), E. fecalis; type: cell-based; conditions: agar plates, 37° C., 24 hours; for MIC: Enterococcus
Description: as §4, §5

[9] = tested on: Enterococcus fecium; assay: Inhibition of bacterial growth (agar plate MIC), E. fecium; type: cell-based; conditions: agar plates, 37° C., 24 hours; for MIC: Enterococcus
Description: as §4, §5

[10] = tested on: MRSA (B42876); assay: Inhibition of bacterial growth (agar plate MIC), MRSA (B42876); type: cell-based, methicillin-resistant S.a.; conditions: agar plates, 37° C., 24 hours; for MIC: Staphylococcus aureus, MRSA
Description: as §4, §5

[11] = in vitro; type: in vitro ADME; conditions: human, Caco-2
Source text: Table 2 summarizes the results of cell membrane permeability assays of representative compounds of the invention. The assay utilizes CaCo2 cell culture monolayers, described by Artursson and Kalsson, Biochem. Biophys. Res.

[12] = truncated assay without dGTP, apparent Ki
[13] = truncated assay without dGTP, apparent Ki, read-out: Ki, B.s. pol IIIC

Compound: O=c1[nH]c(NCc2ccc(Cl)c(Cl)c2)nc2ncn(CCCCCI)c12 [Compound 13, 7-(5-Iodopentyl)-2-(3,4-dichlorobenzylamino)-6-oxopurine]
Ki [1]: 70 nM | Ki [2]: 88 nM | Ki [3]: 47000 nM | MIC ([4]; Enterococcus, VRE): 2.5 µg/mL (≈ 4.94 µM) | MIC [5]: 1.4 µg/mL (≈ 2.77 µM) | MIC ([6]; Staphylococcus aureus): 3.7 µg/mL (≈ 7.31 µM) | MIC [7]: 3.7 µg/mL (≈ 7.31 µM) | MIC [8]: 2.5 µg/mL (≈ 4.94 µM) | MIC [9]: 2.5 µg/mL (≈ 4.94 µM) | MIC [10]: 1.25 µg/mL (≈ 2.47 µM)

Compound: CCc1cc(Nc2cc3ncn(CCCCOC)c3c(=O)[nH]2)ccc1C [Compound 15, 2-(3-Ethyl-4-methylphenylamino)-6-oxo-7-(4-methoxybutyl)-3-deazapurine]
Ki [1]: 1500 nM | Ki, B.s. pol IIIE [2, 12]: inact | MIC [5]: 2.5 µg/mL (≈ 7.05 µM) | MIC [8]: 10 µg/mL (≈ 28.2 µM) | MIC [9]: 10 µg/mL (≈ 28.2 µM) | MIC [10]: 10 µg/mL (≈ 28.2 µM)

Compound: CCc1cc(Nc2cc3ncn(CCCCN4CCOCC4)c3c(=O)[nH]2)ccc1C [Compound 16, 2-(3-Ethyl-4-methylphenylamino)-6-oxo-7-(4-morpholinylbutyl)-3-deazapurine]
Ki [1, 13]: 1100 nM | Ki, B.s. pol IIIE [2, 12]: inact | Ki, E.c. pol IIIE [3, 12]: inact | MIC, VRE [4]: >80 µg/mL | MIC, B.s. [5]: 10 µg/mL (≈ 24.4 µM) | MIC, S.a. [6]: 40 µg/mL (≈ 97.7 µM) | MIC, S.a. (Smith) [7]: 40 µg/mL (≈ 97.7 µM) | MIC, E. fecalis [8]: >80 µg/mL | MIC, E. fecium [9]: 20 µg/mL (≈ 48.8 µM) | MIC, MRSA (B42876) [10]: 30 µg/mL (≈ 73.3 µM)

Compound: CCc1cc(Nc2nc3ncn(CCCCO)c3c(=O)[nH]2)ccc1C [Compound 18, 7-(4-Hydroxybutyl)-2-(3-ethyl-4-methylphenylamino)-6-oxopurine]
Ki [1, 13]: 470 nM | Ki, B.s. pol IIIE [2, 12]: inact | MIC [5]: 15 µg/mL (≈ 43.9 µM) | MIC [7]: 40 µg/mL (≈ 117 µM) | MIC [8]: 20 µg/mL (≈ 58.6 µM) | MIC [9]: 20 µg/mL (≈ 58.6 µM) | MIC [10]: 30 µg/mL (≈ 87.9 µM) | Papp [11]: 0.56 ×10⁻⁶ cm/s

Compound: CCc1cc(Nc2nc3ncn(CCCCCOC(C)=O)c3c(=O)[nH]2)ccc1C [Compound 19, 7-(5-Acetoxypentyl)-2-(3-ethyl-4-methylphenylamino)-6-oxopurine]
Papp [11]: 0.58 ×10⁻⁶ cm/s

Compound: CCc1cc(Nc2nc3ncn(CCCCCO)c3c(=O)[nH]2)ccc1C [Compound 20, 7-(5-Hydroxypentyl)-2-(3-ethyl-4-methylphenylamino)-6-oxopurine]
Ki [1, 13]: 280 nM | MIC [8]: 10 µg/mL (≈ 28.1 µM) | MIC [9]: 10 µg/mL (≈ 28.1 µM) | MIC [10]: 20 µg/mL (≈ 56.3 µM) | Papp [11]: 0.62 ×10⁻⁶ cm/s

Compound: CCc1cc(Nc2nc3ncn(CCCCCOC)c3c(=O)[nH]2)ccc1C [Compound 22, 7-(5-Methoxypentyl)-2-(3-ethyl-4-methylphenylamino)-6-oxopurine]
Ki [1]: 260 nM | Ki [2]: 394000 nM | MIC [5]: 1.25 µg/mL (≈ 3.38 µM) | MIC [8]: 5 µg/mL (≈ 13.5 µM) | MIC [9]: 10 µg/mL (≈ 27.1 µM)

Compound: CCc1cc(Nc2nc3ncn(CCCCCN4CCC(O)(c5ccc(Cl)c(C(F)(F)F)c5)CC4)c3c(=O)[nH]2)ccc1C [Compound 23, 7-{5-[4-hydroxy-4-(3-trifluoromethyl-4-chlorophenyl)piperidyl]pentyl}-2-(3-ethyl-4-methylphenylamino)-6-oxopurine]
Ki [1, 13]: 130 nM | Ki ([2]; truncated assay without dGTP, apparent Ki, read-out: Ki, B.s. pol IIIE): 38000 nM | MIC, VRE [4]: 5 µg/mL (≈ 8.1 µM) | MIC, B.s. [5]: 2.5 µg/mL (≈ 4.05 µM) | MIC, S.a. [6]: 5 µg/mL (≈ 8.1 µM) | MIC, S.a. (Smith) [7]: 5 µg/mL (≈ 8.1 µM) | MIC, E. fecalis [8]: 5 µg/mL (≈ 8.1 µM) | MIC, E. fecium [9]: 5 µg/mL (≈ 8.1 µM) | MIC, MRSA (B42876) [10]: 5 µg/mL (≈ 8.1 µM)

Papp [11]: 19.3 ×10⁻⁶ cm/s
Compound: CC(C)NCC(O)COc1cccc2ccccc12 (centres unmarked) [Propranolol, reference compound]

Papp [11]: 0.27 ×10⁻⁶ cm/s
Compound: CNC(=C[N+](=O)[O-])NCCSCc1ccc(CN(C)C)o1 [Ranitidine, reference compound]
